Reference: ChEMBL document CHEMBL3885861, “Open TG-GATES”

Species on record: Rattus norvegicus
Assay: Open TG-GATES - Regimen: Daily Repeat
Assay type: toxicity, organism-based, Sprague-Dawley
Parameters: regimen Daily Repeat, gender Male, age 6 weeks
Settings: in vivo, po, 100 mg/kg, […], route gavage, dose level Middle; for KIDNEY_L / KIDNEY_R / KIDNEY_TOTAL: tissue Kidney; for LIVER: tissue Liver; for ALP / ALT / AST / BUN / CRE / DBIL / GLC / IP / K / LDH / Na / PL / RALB / TBIL / TC / TG / TP / gamma-GTP: tissue Plasma

Q: What does the source list for `Clc1ccccc1CN1CCc2sccc2C1` [TICLOPIDINE]?
A: Fbg (tissue Blood, time 28 day): 219.8 mg/dL; Hb (tissue Blood, time 28 day): 15.3 g/dL; Ht (tissue Blood, time 28 day): 41.1%; Lym (tissue Blood, time 28 day): 81.6%; MCH (tissue Blood, time 28 day): 20 pg; MCHC (tissue Blood, time 28 day): 37.4%; MCV (tissue Blood, time 28 day): 53.4 fL; Mono (tissue Blood, time 28 day): 2.2%; Neu (tissue Blood, time 28 day): 13.6%; PT (tissue Blood, time 28 day): 11.6 s; Plat (tissue Blood, time 28 day): 114.7 x10_4/uL; RBC (tissue Blood, time 28 day): 770 x10_4/ul; Ret (tissue Blood, time 28 day): 3%; WBC (tissue Blood, time 28 day): 136.4 x10_2/uL; KIDNEY_L (time 7 day): 1.2 g; KIDNEY_R (time 7 day): 1.2 g; KIDNEY_TOTAL (time 7 day): 2.3 g; KIDNEY_L (time 14 day): 1.2 g; KIDNEY_R (time 14 day): 1.2 g; KIDNEY_TOTAL (time 14 day): 2.5 g; KIDNEY_L (time 28 day): 1.5 g; KIDNEY_R (time 28 day): 1.5 g; KIDNEY_TOTAL (time 28 day): 3 g; LIVER (time 7 day): 13 g; LIVER (time 14 day): 14.1 g; LIVER (time 28 day): 17.9 g; ALP (time 7 day): 969.2 IU/L; ALT (time 7 day): 39.4 IU/L; AST (time 7 day): 73.2 IU/L; BUN (time 7 day): 14.8 mg/dL; CRE (time 7 day): 0.4 mg/dL; DBIL (time 7 day): 0.068 mg/dL; GLC (time 7 day): 192.6 mg/dL; IP (time 7 day): 7.2 mg/dL; K (time 7 day): 3.9 meq/L; LDH (time 7 day): 144.8 IU/L; Na (time 7 day): 142.4 meq/L; PL (time 7 day): 145.4 mg/dL; RALB (time 7 day): 3.5 g/dL; TBIL (time 7 day): 0.1 mg/dL; TC (time 7 day): 74.8 mg/dL; TG (time 7 day): 68.2 mg/dL; TP (time 7 day): 5.7 g/dL; gamma-GTP (time 7 day): 0.8 IU/L; ALP (time 14 day): 792.6 IU/L; ALT (time 14 day): 36.6 IU/L; AST (time 14 day): 68.8 IU/L; BUN (time 14 day): 15.8 mg/dL; CRE (time 14 day): 0.4 mg/dL; DBIL (time 14 day): 0.06 mg/dL; GLC (time 14 day): 205 mg/dL; IP (time 14 day): 7.5 mg/dL; K (time 14 day): 3.8 meq/L; LDH (time 14 day): 161.8 IU/L; Na (time 14 day): 143.4 meq/L; PL (time 14 day): 152.2 mg/dL; RALB (time 14 day): 3.4 g/dL; TBIL (time 14 day): 0.098 mg/dL; TC (time 14 day): 78.8 mg/dL; TG (time 14 day): 94.2 mg/dL; TP (time 14 day): 5.7 g/dL; gamma-GTP (time 14 day): 1 IU/L; ALP (time 28 day): 625.8 IU/L; ALT (time 28 day): 44 IU/L; AST (time 28 day): 71.6 IU/L; BUN (time 28 day): 17.6 mg/dL; CRE (time 28 day): 0.5 mg/dL; DBIL (time 28 day): 0.072 mg/dL; GLC (time 28 day): 202.8 mg/dL; IP (time 28 day): 7.5 mg/dL; K (time 28 day): 3.8 meq/L; LDH (time 28 day): 152.4 IU/L; Na (time 28 day): 142.2 meq/L; PL (time 28 day): 154.8 mg/dL; RALB (time 28 day): 3.6 g/dL; TBIL (time 28 day): 0.1 mg/dL; TC (time 28 day): 76.8 mg/dL; TG (time 28 day): 82.8 mg/dL; TP (time 28 day): 6.3 g/dL; gamma-GTP (time 28 day): 0.8 IU/L
